C(=C\c1ccccc1)/CN1CCN(C(c2ccccc2)c2ccccc2)CC1
solubility (mole fraction)
Settings | 288.5 K | 293.5 K | 298.4 K | 303.3 K | 308.3 K | 313.2 K
in acetonitrile | 0.000877 | 0.00105 | 0.00137 | 0.00158 | 0.00204 | 0.00273
in isopropanol | 0.00064 | 0.000811 | 0.000994 | 0.00127 | 0.00165 | 0.00208
in n-butanol | 0.00273 | 0.00351 | 0.00412 | 0.00499 | 0.00607 | 0.00804
in n-butyl acetate | 0.0153 | 0.0197 | 0.0226 | 0.0272 | 0.0337 | 0.0425
